Measured values reported in patent US20040048356A1, “Use of a strain of lactobacillus reducing the risk factors involved in the metabolic syndrome” (priority 2000, published 2004).

Columns and labels:
[1] = clinical trial, Zapolska-Downar et al. 2000; cited from earlier work
[2] = tested on: PPAR; test: Effect of propionic acid on PPAR gene expression in vitro (semiquantitative RT-PCR in HUVEC); type: cell-based; details: PPAR mRNA in human endothelial cells, percent in relation to GAPDH mRNA (100%)
Procedure: Human umbilical vein endothelial cells, HUVEC, were obtained from umbilical cords by collagenase digestion as described by Jaffe et al. (Biology of Endothelial Cells, Boston, Martinus Nijhoff Publishers, 1984, p. 1-13). In brief, veins of umbilical cords were perfused with PBS to remove blood cells, filled with 0.1% collagenase (type Ia) and left for 10 minutes at 37° C. Suspended HUvEC were supplemented with PBS, centrifuged and cultured at 37° C. in gelatine-coated 25 ml flasks and 6-well tissue culture plates filled with medium 199, under humidified 5% CO2 in room air. Propionic acid was added to the culture medium in the amounts of 0.1, 1.0, and 10.0 mmol/l, and the effect of the acid on the expression of PPAR was determined. Total RNA was extracted from the cells by the method of Chomczynski using TRIZOL (Gibco BRL). After isolation the integrity of the RNA samples was checked by gel electrophoresis in 1% agarose gel stained with ethidium bromide. The concentration of total RNA was calculated after spectrophotometric measurements at 260 nm wavelength. Each RNA sample (500 ng) was incubated with 1 U of DNAse I (Boehringer Mannheim, Germany) for 15 minutes at 37° C., and subsequently DNAse I was inactivated by heating at 75° C. for 3 minutes. Such DNAse-treated RNA (500 ng) was dissolved in 20 μl of a reaction mixture containing 2.5 mM of dATP, dTTP, dCTP, and dGTP (Progmega, USA), 20 U of RNAsin (Promega, USA), 100 pM of random hexamers (Boehringer Mannheim, Germany) and 20 U of MMLV Reverse Transcriptase (Boehringer Mannheim). Incubation was carried out at 37° C. for 60 minutes; the temperature of the reaction was then raised to 94° C. for 5 minutes to inactivate the enzyme and finally dropped to 4° C. […] The intensity of the bands was densitometrically measured with the gel analysis macro supplied with NIH Image. All PPAR signals were normalised to mRNA levels of the housekeeping gene GAPDH and expressed as a ratio. Data are expressed as percent in relation to GAPDH mRNA (100%).

Structure (SMILES) | HDL cholesterol levels [1] | Increase of mRNA, % ([2]; propionic acid 0.1 mmol/l) [%] | Increase of mRNA, % ([2]; propionic acid 1.0 mmol/l) [%] | Increase of mRNA, % ([2]; propionic acid 10.0 mmol/l) [%]
CC(C)Cc1ccc(C(C)C(=O)O)cc1 (stereo not shown) [ibuprofen] | increased |  |  | 
CCC(=O)O [propionic acid] |  | 29.3 | 47.2 | 89.7
